These results are taken from article PMC7745444 (ACS Omega, 2020).

In assay [1] the target is β-galactosidase (Escherichia coli, UniProt P00722). Nature of the assay: p-nitrophenyl galactopyranoside hydrolysis, absorbance at […] nm. The assay is classed as biochemical.
Assay [2] concerns the target β-glucosidase. Nature of the assay: p-nitrophenyl glucopyranoside hydrolysis, absorbance at […] nm. The assay is classed as biochemical, Prunus dulcis.

β-galactosidase, sequence (P00722 2-1024): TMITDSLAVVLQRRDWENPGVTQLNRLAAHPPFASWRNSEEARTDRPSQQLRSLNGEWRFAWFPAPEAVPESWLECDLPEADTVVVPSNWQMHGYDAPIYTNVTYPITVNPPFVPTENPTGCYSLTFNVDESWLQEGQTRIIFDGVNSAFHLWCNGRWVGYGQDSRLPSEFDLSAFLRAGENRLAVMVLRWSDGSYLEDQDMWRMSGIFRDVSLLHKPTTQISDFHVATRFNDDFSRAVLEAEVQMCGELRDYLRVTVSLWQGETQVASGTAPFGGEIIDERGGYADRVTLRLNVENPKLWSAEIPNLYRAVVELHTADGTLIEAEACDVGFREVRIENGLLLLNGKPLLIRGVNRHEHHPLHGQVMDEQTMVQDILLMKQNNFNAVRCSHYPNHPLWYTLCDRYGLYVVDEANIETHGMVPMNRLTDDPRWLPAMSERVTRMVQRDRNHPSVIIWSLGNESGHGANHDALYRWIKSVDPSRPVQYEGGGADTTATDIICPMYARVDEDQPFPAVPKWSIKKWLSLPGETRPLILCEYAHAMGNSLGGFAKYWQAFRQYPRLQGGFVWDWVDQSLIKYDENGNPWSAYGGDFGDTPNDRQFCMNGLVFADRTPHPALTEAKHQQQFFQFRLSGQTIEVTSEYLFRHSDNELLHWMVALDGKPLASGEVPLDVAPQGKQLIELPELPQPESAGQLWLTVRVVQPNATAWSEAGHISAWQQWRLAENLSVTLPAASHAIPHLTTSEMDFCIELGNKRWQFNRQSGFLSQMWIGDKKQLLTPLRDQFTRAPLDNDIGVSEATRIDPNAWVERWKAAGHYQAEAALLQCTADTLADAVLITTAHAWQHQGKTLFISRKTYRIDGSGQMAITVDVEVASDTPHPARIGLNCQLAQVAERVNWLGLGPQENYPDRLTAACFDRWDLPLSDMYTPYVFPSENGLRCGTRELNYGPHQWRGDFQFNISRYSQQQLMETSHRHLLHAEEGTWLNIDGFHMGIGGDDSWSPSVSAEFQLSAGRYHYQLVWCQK

For orientation: Ki means the equilibrium dissociation constant of an inhibitor or competing ligand from its target. A higher Ki goes with lower affinity. Take `O=C(O)[C@H]1[C@@H]2CN[C@H](CO)[C@@H](O)[C@@H]21` [8a, (1R,4R,5S,6S,7S)-5-Hydroxy-4-(hydroxymethyl)-3-azabicyclo[4.1.0]heptane-7-carboxylic Acid]: in assay [1], the Ki came out at 1.18 mM. That is a millimolar value.

Compound `CN1C[C@H]2[C@H](CO)[C@H]2[C@H](O)[C@H]1CO` [compound 9, (1S,4R,5S,6S,7S)-4,7-bis(Hydroxymethyl)-3-methyl-3-azabicyclo[4.1.0]heptan-5-ol] showed a Ki in assay [2] of 4.43 mM.
